{"source": "patent US20220088115A1", "about": "“PHARMACEUTICAL COMPOSITION, COMPRISING INHIBITORY PEPTIDE AGAINST FAS SIGNALING, FOR PREVENTION OR TREATMENT OF OBESITY, FATTY LIVER, OR STEATOHEPATITIS” (SIGNET BIOTECH INC., priority 2018, published 2022)", "key": {"Fas": {"biological_target": "T1, Fas (Homo sapiens, UniProt P25445)", "T1 construct": "A Jurkat cell line, in which Fas is always expressed; host or cells: Jurkat", "T1 sequence (P25445 26-335)": "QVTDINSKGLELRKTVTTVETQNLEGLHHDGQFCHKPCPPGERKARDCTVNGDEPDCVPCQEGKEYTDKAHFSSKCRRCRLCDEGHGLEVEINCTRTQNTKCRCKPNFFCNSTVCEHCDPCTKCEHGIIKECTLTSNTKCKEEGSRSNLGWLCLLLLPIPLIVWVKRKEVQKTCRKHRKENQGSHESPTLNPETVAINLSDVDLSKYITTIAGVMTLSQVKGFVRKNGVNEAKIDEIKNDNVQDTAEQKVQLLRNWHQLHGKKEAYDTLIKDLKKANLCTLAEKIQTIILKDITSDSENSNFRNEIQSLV", "experiment": "Binding of Alexa647-labeled peptides to Fas-expressing Jurkat cell line", "settings": "Jurkat cell line always expressing Fas; Alexa647-labeled peptide", "procedure": "A Jurkat cell line which is a human blood cancer cell line and a 3T3L1 cell line which is a murine adipocyte were purchased from ATCC (USA), and the Jurkat cell line was cultured in an RPMI culture medium containing 10% fetal bovine serum (FBS), 1% penicillin, 1% streptomycin, and 25 mM glucose.\nA Jurkat cell line, in which Fas is always expressed, was treated with an FITC-labeled Fas antibody and treated with Alexa647-labeled FBP-8, FBP-A, FBP-7 or control peptide (YCNSTVCY; CtrFBP)."}, "3T3L1 cell line [1]": {"system": "3T3L1 cell line", "experiment": "Cytotoxicity by CCK-8 analysis kit in 3T3L1 cell line", "type": "cell-based, murine", "settings": "differentiated 3T3L1 cell lines, 100 μM to 1000 μM, 24 hours", "procedure": "(§1) The 3T3L1 cell line was cultured in a DMEM culture medium containing 10% FBS, 1% penicillin, 1% streptomycin, and 25 mM glucose. The 3T3L1 cell line was aliquoted into the above DMEM culture solution at a concentration of 2×10^5 cells/ml to induce adipocyte maturation for 3 days, and then replaced with a culture solution containing insulin to induce adipocyte maturation again for 3 days. Thereafter, the 3T3L1 cell line was further cultured in the above DMEM culture solution for 2 days to achieve complete maturation of adipocytes.\nThe cytotoxicity experiments of the peptides described in 1. above were performed by a CCK-8 analysis kit (Dojindo Laboratories, Japan). The 3T3L1 cell line was treated with peptides at various concentrations (uM) and cytotoxicity was analyzed after 24 hours."}, "3T3L1 cell line [2]": {"system": "3T3L1 cell line", "experiment": "Expression of inflammation-related genes in 3T3L1 cell line treated with FasL and peptide", "type": "cell-based, murine", "settings": "differentiated 3T3L1 treated with Fas ligand and FBP-8 in combination", "procedure": "as §1\n(§2) mRNA was extracted from liver tissues and white adipose tissues using RNAiso (Takara, Japan), and cDNA was synthesized with an iscript cDNA synthesis kit (Bio-Rad Laboratories, USA). Thereafter, a gene expression level was analyzed by the 7500 Fast Real-time PCR system (Applied Biosystems, USA). The expression level of each gene was normalized with the expression level of a GAPDH gene, and then calculated as a relative gene expression level with respect to the control."}, "obesity model mice [3]": {"system": "obesity model mice", "experiment": "Gene expression in white adipose and liver tissues, obesity model mice, intravenous FBP-8", "type": "in vivo, C57BL/6 mice", "procedure": "(§3) All animal experiments performed for the present invention were approved by the Institutional Animal Care and Use Committee of Hanyang University. […] Thereafter, depending on the experimental group, 60 μg/one time of FBP8 were administered by intravenous injection twice a week for a total of 5 weeks (FIG. 13), or FBP7 was administered by subcutaneous injection twice a day.\nas §2\nObesity model mice were produced by feeding normal mice a high fat diet for 8 weeks, and FBP-8 was administered by intravenous injection twice a week for a total of 5 weeks (FIG. 13). After five weeks, the obesity model mice were sacrificed to isolate white adipose tissues and liver tissues and analyze the proportion of dead cells by TUNEL staining."}, "obesity model mice [4]": {"system": "obesity model mice", "experiment": "Glucose tolerance test (GTT) and insulin tolerance test (ITT), obesity model mice, intravenous FBP-8", "type": "in vivo, C57BL/6 mice", "procedure": "as §3\nFor a glucose intolerance analysis, a dose of 2 g/kg of glucose was injected by intraperitoneal injection into each experimental group maintained in a fasting state for 12 hours, and blood glucose levels were measured after 30, 60 and 120 minutes by Accu-check (Roche, USA).\nInsulin resistance was analyzed by measuring blood glucose levels 30 minutes, 60 minutes and 120 minutes after a dose of 0.75 U/kg of insulin was injected by intraperitoneal injection into each experimental group maintained in a fasting state for 4 hours."}, "obesity model mice [5]": {"system": "obesity model mice", "experiment": "Liver morphology, weight and histological analysis, obesity model mice, intravenous FBP-8", "type": "in vivo, C57BL/6 mice", "procedure": "as §3\nLiver tissue and white adipose tissue sections were stained with hematoxylin & eosin and then histologically analyzed under an optical microscope."}, "[6]": {"settings": "compared to negative control (CtrFBP)"}}, "data": [{"sequence": "YCDEHFCY (Fas binding peptide-8 (FBP-8))", "values": [{"measurement": "binding to Jurkat cells (Alexa647 signal)", "setting": "Fas", "result": "bound to Jurkat cells at similar levels"}, {"measurement": "cytotoxicity", "setting": "3T3L1 cell line [1]", "result": "little cytotoxicity was observed"}, {"measurement": "expressions of inflammation-related genes Fas, TNF-α, MCP-1, F4/80, IL-6 and iNOS", "setting": "3T3L1 cell line [2]", "result": "remarkably reduced"}, {"measurement": "expression level of CD206 (anti-inflammatory macrophage marker) in liver tissues", "setting": "obesity model mice [3]", "result": "no significant change"}, {"measurement": "expression levels of F480 and CD11c (pro-inflammatory macrophage markers) in white adipose tissue", "setting": "obesity model mice [3]; [6]", "result": "significantly reduced"}, {"measurement": "expression levels of F480 and CD11c in liver tissues", "setting": "obesity model mice [3]; [6]", "result": "decreased"}, {"measurement": "expression levels of inflammation-related genes Fas, TNF-α, MCP-1 and IL-6 in liver tissues", "setting": "obesity model mice [3]; [6]", "result": "significantly reduced"}, {"measurement": "expression of inflammation-related genes Fas, TNF-α, MCP-1 and IL-6 in white adipose tissues", "setting": "obesity model mice [3]; [6]", "result": "reduced"}, {"measurement": "reduction of stearoyl-CoA desaturase (SCD-1) expression level in liver tissues", "setting": "obesity model mice [3]; [6]", "result": "about 30+5.32%"}, {"measurement": "blood glucose changes / glucose metabolism in GTT and ITT", "setting": "obesity model mice [4]", "result": "improved glucose metabolism"}, {"measurement": "damage to the liver tissue (histological analysis)", "setting": "obesity model mice [5]", "result": "inhibited"}, {"measurement": "size of the liver tissue", "setting": "obesity model mice [5]; [6]", "result": "smaller"}, {"measurement": "weight of the liver tissue", "setting": "obesity model mice [5]; [6]", "result": "lighter"}]}]}
